Measurements as given in patent US20170119769A1, “SCAFFOLDS FOR INHIBITORS OF MENIN-MLL INTERACTIONS” (THE TRUSTEES OF THE UNIVERSITY OF PENNSYLVANIA, priority 2014, published 2017).
“Also recorded” adds a separate entry of the source.

Experiments:
[1] = tested on: menin-null (vector) MEF cells; test: Cell growth of menin-null (vector) MEFs; type: cell-based, mouse; settings: increasing concentrations from day 1; counted after six days of treatment
Description: (§1) FIG. 15. Menin inhibition antagonizes menin mediated suppression of cell proliferation. […] Vector and menin-expressing MEFs (inset) were seeded at 0.25×10^6 cells/10 cm dish on day 0, treated with either DMSO or increasing concentrations of MI-2-2 from day 1 as indicated, and counted after six days of treatment.
(§2) Vector and menin-expressing MEFs (FIG. 15, inset) were seeded at 0.25×10^6 cells/10 cm dish on day 0, treated with either DMSO or increasing concentrations of MI-2-2 from day 1 as indicated, and counted after six days of treatment. Thus, inhibition of menin antagonizes menin mediated suppression of cell proliferation.

murine islets = test: Proliferation (Ki67) in isolated murine islets; type: cell-based, C57BL/6J mice
From the text: FIG. 14. Menin inhibitor (MI-2-2) increases proliferation in murine islets, as evidenced by increased number of cells positive for the proliferation marker Ki67. […] Isolated murine islets were pre-cultured for one day before treatment with drug or vehicle.
The ability of MI-2-2 to stimulate cell growth was further tested in murine islets isolated from C57BL/6J mice (Jackson Laboratories, Bar Harbor, Me.).

[2] = tested on: menin-expressing MEF cells; test: Cell growth of menin-expressing MEFs; type: cell-based, mouse; settings: increasing concentrations from day 1; counted after six days of treatment
Description: as §1, §2

GLP1 receptor = GLP1 receptor expression in human islets (real time quantitative PCR); type: cell-based; settings: 50 nM, 200 nM or 500 nM for 2 days, vs DMSO
Description: FIG. 16. Menin inhibition increases expression of the GLP1 receptor Human islets were cultured in a humidified incubator with 5% CO2 at 37° C. After 24 hours, the islets were treated with vehicle control (DMSO) or varying concentrations of MI-2-2 (50 nM, 200 nM or 500 nM) for 2 days. The islets were harvested and. RNA was isolated and was reverse transcribed to cDNA. cDNA was quantitated by real time quantitative PCR and normalized using β-actin as endogenous control.
Menin inhibition also increases expression of GLP1 receptor, which is the receptor mediating the pro-islet incretin's ability to reduce blood glucose (FIG. 16). Human islets were procured from the Islet Transplantation Center, University of Pennsylvania and cultured in a humidified incubator with 5% CO2 at 37° C. After 24 hours, the islets were treated with vehicle control (DMSO) or varying concentrations of MI-2-2 (50 nM, 200 nM or 500 nM) for 2 days. […] RNA was isolated using the RNeasy Mini Kit (Qiagen, Germantown, Md.) and was reverse transcribed to cDNA using the SuperScript® III Reverse Transcriptase (Life Technologies, Grand Island, N.Y.). cDNA was quantitated by real time quantitative PCR using QuantiTect SYBR® Green (Qiagen, Germantown, Md.) on a 7500 Fast Real time PCR system (AppliedBiosystems, Life Technologies, Grand Island, N.Y.) and normalized using β-actin as endogenous control.

## CC1(C)CN=C(N2CCN(c3ncnc4sc(CC(F)(F)F)cc34)CC2)S1 [MI-2-2]
[1]
  cell growth of menin-null (vector) MEFs: did not do so in vector MEFs; also recorded: not menin-null (vector) cells
Murine islets; 500 nM for two days, compared with vehicle control
  Ki67 staining in murine islets: increased Ki67 staining
Murine islets; treatment for 2 days, concentration dependence
  Ki67 positive cells per unit area in murine islets: increased the number of proliferating cells in a concentration dependent manner; also recorded: dose dependent increase
[2]
  cell growth of menin-expressing MEFs: increased cell growth in menin MEFs in a concentration dependent manner; also recorded: increases proliferation of menin-expressing MEF cells
GLP1 receptor
  expression of GLP1 receptor relative to β-actin expression: about 2 fold
